Assay type in all cases: functional
The subject of assay [1] is Homo sapiens. The assay is described as follows: Protection against community-acquired pneumonia in patient with pneumonia severity index-5 assessed as mortality at 500 mg administered once daily for 30 days.
The subject of assay [2] is Homo sapiens. In words: Protection against community-acquired pneumonia in patient with pneumonia severity index-2 assessed as mortality at 500 mg administered once daily for 30 days.
The subject of assay [3] is Homo sapiens. The assay is described as follows: Protection against community-acquired pneumonia in patient with pneumonia severity index-4 assessed as mortality at 500 mg administered once daily for 30 days.
Assay [4] has as its system Homo sapiens. In words: Protection against community-acquired pneumonia in patient with pneumonia severity index-3 assessed as mortality at 500 mg administered once daily for 30 days.
The subject of assay [5] is Homo sapiens. In words: Protection against community-acquired pneumonia in patient with pneumonia severity index-3 assessed as mortality at 500 mg administered once daily for 14 days.
For assay [6], the system named is Homo sapiens. The assay is described as follows: Protection against community-acquired pneumonia in patient with pneumonia severity index-5 assessed as mortality at 500 mg administered once daily for 14 days.
The test system of assay [7] is Homo sapiens. The assay is described as follows: Protection against community-acquired pneumonia in patient with pneumonia severity index-4 assessed as mortality at 500 mg administered once daily for 14 days.
In assay [8] the test system is Homo sapiens. The assay is described as follows: Protection against community-acquired pneumonia in patient with pneumonia severity index-2 assessed as mortality at 500 mg administered once daily for 14 days.

On to `C[C@H]1COc2c(N3CCN(C)CC3)c(F)cc3c(=O)c(C(=O)O)cn1c23.C[C@H]1COc2c(N3CCN(C)CC3)c(F)cc3c(=O)c(C(=O)O)cn1c23.O` [LEVOFLOXACIN], for which the Activity in the assay on Homo sapiens [1] was 36.6%; in the assay with Homo sapiens [2], 0%; in the assay on Homo sapiens [3], 5%; with Homo sapiens [4], 6.3%; in the assay on Homo sapiens [5], 2.1%; with Homo sapiens [6] it was 26.8%. Moreover, the Activity is given as 4.2% with Homo sapiens [7] and 0% with Homo sapiens [8].
